The supplement of paper PMC10307832

How the values were obtained:
Experiment in all cases: relative viability (nuclei count vs DMSO), 5 days (fraction); higher = more cells survive
LOU-NH91 = system: LOU-NH91
In short: (§1)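 Each reported value is a median over duplicate plates. It expresses relative viability: treated-well nuclei count divided by vehicle-well nuclei count. Lung cancer cell lines in 1536-well plates were dosed by pin tool a day after seeding, alone with one drug or with a fixed anchor-drug dose plus five library-drug doses (not always all listed) in √10 steps, and nuclei were counted after 5 days.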

NCI-H1355 = system: NCI-H1355
In short: as §1

NCI-H838 = system: NCI-H838
In short: as §1

HCC-366 = system: HCC-366
In short: as §1

CAL-12T = system: CAL-12T
In short: as §1

NCI-H1755 = system: NCI-H1755
In short: as §1

NCI-H460 = system: NCI-H460
In short: as §1

HCC-44 = system: HCC-44
In short: as §1

NCI-H1563 = system: NCI-H1563
In short: as §1

NCI-H2085 = system: NCI-H2085
In short: as §1

NCI-H1651 = system: NCI-H1651
In short: as §1

NCI-H1975 = system: NCI-H1975
In short: as §1

BEN = system: BEN
In short: as §1

LCLC-103H = system: LCLC-103H
In short: as §1

NCI-H1650 = system: NCI-H1650
In short: as §1

NCI-H1437 = system: NCI-H1437
In short: as §1

NCI-H1734 = system: NCI-H1734
In short: as §1

HCC-15 = system: HCC-15
In short: as §1

EKVX = system: EKVX
In short: as §1

NCI-H441 = system: NCI-H441
In short: as §1

NCI-H2023 = system: NCI-H2023
In short: as §1

C[C@@H]1CN(CC(=O)Nc2ccc3c(c2)Cc2cccc(-c4cc(=O)cc(N5CCOCC5)o4)c2S3)C[C@H](C)O1 + CC(C)C[C@H](NC(=O)[C@H](Cc1ccccc1)NC(=O)c1cnccn1)B(O)O [Bortezomib] (partner 0.002 µM)
relative viability (LOU-NH91; first compound 0.04 µM): 0.495
relative viability (LOU-NH91; first compound 0.1265 µM): 0.446
relative viability (LOU-NH91; first compound 0.4 µM): 0.428
relative viability (LOU-NH91; first compound 4 µM): 0.527
relative viability (NCI-H1355; first compound 0.04 µM): 1.2
relative viability (NCI-H1355; first compound 0.1265 µM): 1.23
relative viability (NCI-H1355; first compound 0.4 µM): 1.19
relative viability (NCI-H1355; first compound 4 µM): 1.18
relative viability (NCI-H838; first compound 0.04 µM): 0.715
relative viability (NCI-H838; first compound 0.1265 µM): 0.689
relative viability (NCI-H838; first compound 0.4 µM): 0.865
relative viability (NCI-H838; first compound 4 µM): 0.643
relative viability (HCC-366; first compound 0.04 µM): 0.999
relative viability (HCC-366; first compound 0.1265 µM): 1.04
relative viability (HCC-366; first compound 0.4 µM): 1.24
relative viability (HCC-366; first compound 4 µM): 0.978
relative viability (CAL-12T; first compound 0.04 µM): 1.06
relative viability (CAL-12T; first compound 0.1265 µM): 0.954
relative viability (CAL-12T; first compound 0.4 µM): 1.06
relative viability (CAL-12T; first compound 4 µM): 0.796
relative viability (NCI-H1755; first compound 0.04 µM): 1.05
relative viability (NCI-H1755; first compound 0.1265 µM): 1.01
relative viability (NCI-H1755; first compound 0.4 µM): 0.948
relative viability (NCI-H1755; first compound 4 µM): 0.942
relative viability (NCI-H460; first compound 0.04 µM): 1.13
relative viability (NCI-H460; first compound 0.1265 µM): 1.05
relative viability (NCI-H460; first compound 0.4 µM): 1.24
relative viability (NCI-H460; first compound 4 µM): 0.759
relative viability (HCC-44; first compound 0.04 µM): 0.952
relative viability (HCC-44; first compound 0.1265 µM): 0.938
relative viability (HCC-44; first compound 0.4 µM): 0.982
relative viability (HCC-44; first compound 4 µM): 0.796
relative viability (NCI-H1563; first compound 0.04 µM): 0.89
relative viability (NCI-H1563; first compound 0.1265 µM): 1.01
relative viability (NCI-H1563; first compound 0.4 µM): 0.828
relative viability (NCI-H1563; first compound 4 µM): 0.797
relative viability (NCI-H2085; first compound 0.04 µM): 0.999
relative viability (NCI-H2085; first compound 0.1265 µM): 1.04
relative viability (NCI-H2085; first compound 0.4 µM): 0.975
relative viability (NCI-H2085; first compound 4 µM): 0.805
relative viability (NCI-H1651; first compound 0.04 µM): 0.848
relative viability (NCI-H1651; first compound 0.1265 µM): 0.866
relative viability (NCI-H1651; first compound 0.4 µM): 0.922
relative viability (NCI-H1651; first compound 4 µM): 0.976
relative viability (NCI-H1975; first compound 0.04 µM): 0.394
relative viability (NCI-H1975; first compound 0.1265 µM): 0.415
relative viability (NCI-H1975; first compound 0.4 µM): 0.39
relative viability (NCI-H1975; first compound 4 µM): 0.27
relative viability (BEN; first compound 0.04 µM): 0.624
relative viability (BEN; first compound 0.1265 µM): 0.71
relative viability (BEN; first compound 0.4 µM): 0.861
relative viability (BEN; first compound 4 µM): 0.788
relative viability (LCLC-103H; first compound 0.04 µM): 1.19
relative viability (LCLC-103H; first compound 0.1265 µM): 1.03
relative viability (LCLC-103H; first compound 0.4 µM): 1.09
relative viability (LCLC-103H; first compound 4 µM): 0.999
relative viability (NCI-H1650; first compound 0.04 µM): 0.221
relative viability (NCI-H1650; first compound 0.1265 µM): 0.23
relative viability (NCI-H1650; first compound 0.4 µM): 0.192
relative viability (NCI-H1650; first compound 4 µM): 0.183
relative viability (NCI-H1437; first compound 0.04 µM): 0.486
relative viability (NCI-H1437; first compound 0.1265 µM): 0.529
relative viability (NCI-H1437; first compound 0.4 µM): 0.489
relative viability (NCI-H1437; first compound 4 µM): 0.45
relative viability (NCI-H1734; first compound 0.04 µM): 1.07
relative viability (NCI-H1734; first compound 0.1265 µM): 1.04
relative viability (NCI-H1734; first compound 0.4 µM): 0.927
relative viability (NCI-H1734; first compound 4 µM): 1.1
relative viability (HCC-15; first compound 0.04 µM): 1
relative viability (HCC-15; first compound 0.1265 µM): 0.948
relative viability (HCC-15; first compound 0.4 µM): 1.03
relative viability (HCC-15; first compound 4 µM): 0.836
relative viability (EKVX; first compound 0.04 µM): 1.19
relative viability (EKVX; first compound 0.1265 µM): 1.02
relative viability (EKVX; first compound 0.4 µM): 0.945
relative viability (EKVX; first compound 4 µM): 0.705
relative viability (NCI-H441; first compound 0.04 µM): 0.6
relative viability (NCI-H441; first compound 0.4 µM): 0.445
relative viability (NCI-H441; first compound 4 µM): 0.489
relative viability (NCI-H2023; first compound 0.04 µM): 1.06
relative viability (NCI-H2023; first compound 0.1265 µM): 0.969
relative viability (NCI-H2023; first compound 0.4 µM): 0.783
relative viability (NCI-H2023; first compound 4 µM): 0.876

CC(C)Oc1cc(Nc2nc(N[C@@H](C)c3ccc(F)cn3)ncc2Cl)n[nH]1 [AZ23] + CC(C)C[C@H](NC(=O)[C@H](Cc1ccccc1)NC(=O)c1cnccn1)B(O)O [Bortezomib] (partner 0.002 µM)
relative viability (LOU-NH91; first compound 0.01 µM): 0.535
relative viability (LOU-NH91; first compound 0.03162 µM): 0.546
relative viability (LOU-NH91; first compound 0.3162 µM): 0.519
relative viability (NCI-H1355; first compound 0.01 µM): 1.33
relative viability (NCI-H1355; first compound 0.03162 µM): 1.17
relative viability (NCI-H1355; first compound 0.3162 µM): 1.26
relative viability (NCI-H838; first compound 0.01 µM): 0.772
relative viability (NCI-H838; first compound 0.03162 µM): 0.702
relative viability (NCI-H838; first compound 0.3162 µM): 0.757
relative viability (HCC-366; first compound 0.01 µM): 1.26
relative viability (HCC-366; first compound 0.03162 µM): 1.34
relative viability (HCC-366; first compound 0.3162 µM): 1.1
relative viability (CAL-12T; first compound 0.03162 µM): 1.01
relative viability (CAL-12T; first compound 0.3162 µM): 0.876
relative viability (NCI-H1755; first compound 0.01 µM): 1.16
relative viability (NCI-H1755; first compound 0.03162 µM): 1.07
relative viability (NCI-H1755; first compound 0.3162 µM): 1.03
relative viability (NCI-H460; first compound 0.01 µM): 0.915
relative viability (NCI-H460; first compound 0.03162 µM): 1.47
relative viability (NCI-H460; first compound 0.3162 µM): 1.38
relative viability (HCC-44; first compound 0.01 µM): 0.88
relative viability (HCC-44; first compound 0.03162 µM): 1.07
relative viability (HCC-44; first compound 0.3162 µM): 0.912
relative viability (NCI-H1563; first compound 0.01 µM): 0.931
relative viability (NCI-H1563; first compound 0.03162 µM): 1.01
relative viability (NCI-H1563; first compound 0.3162 µM): 0.816
relative viability (NCI-H2085; first compound 0.01 µM): 0.991
relative viability (NCI-H2085; first compound 0.03162 µM): 1.03
relative viability (NCI-H2085; first compound 0.3162 µM): 1.01
relative viability (NCI-H1651; first compound 0.01 µM): 0.957
relative viability (NCI-H1651; first compound 0.03162 µM): 1.02
relative viability (NCI-H1651; first compound 0.3162 µM): 1.01
relative viability (NCI-H1975; first compound 0.01 µM): 0.393
relative viability (NCI-H1975; first compound 0.03162 µM): 0.372
relative viability (NCI-H1975; first compound 0.3162 µM): 0.375
relative viability (BEN; first compound 0.01 µM): 0.817
relative viability (BEN; first compound 0.03162 µM): 1.08
relative viability (BEN; first compound 0.3162 µM): 0.867
relative viability (LCLC-103H; first compound 0.01 µM): 1.01
relative viability (LCLC-103H; first compound 0.03162 µM): 1.26
relative viability (LCLC-103H; first compound 0.3162 µM): 1.14
relative viability (NCI-H1650; first compound 0.01 µM): 0.189
relative viability (NCI-H1650; first compound 0.03162 µM): 0.242
relative viability (NCI-H1650; first compound 0.3162 µM): 0.187
relative viability (NCI-H1437; first compound 0.01 µM): 0.541
relative viability (NCI-H1437; first compound 0.03162 µM): 0.484
relative viability (NCI-H1437; first compound 0.3162 µM): 0.569
relative viability (NCI-H1734; first compound 0.01 µM): 1.02
relative viability (NCI-H1734; first compound 0.03162 µM): 1.37
relative viability (NCI-H1734; first compound 0.3162 µM): 1.01
relative viability (HCC-15; first compound 0.01 µM): 1.38
relative viability (HCC-15; first compound 0.03162 µM): 1.09
relative viability (HCC-15; first compound 0.3162 µM): 1.16
relative viability (EKVX; first compound 0.01 µM): 1.52
relative viability (EKVX; first compound 0.03162 µM): 1.26
relative viability (EKVX; first compound 0.3162 µM): 1.01
relative viability (NCI-H441; first compound 0.01 µM): 0.833
relative viability (NCI-H441; first compound 0.03162 µM): 1.05
relative viability (NCI-H441; first compound 0.3162 µM): 0.678
relative viability (NCI-H2023; first compound 0.03162 µM): 0.959
relative viability (NCI-H2023; first compound 0.3162 µM): 1.22
